Laboratory results reported in the CombiSolv-Exp solvation set (Vermeire and Green 2021).

Experiment: solvent given as SMILES

With `CNCCc1ccc(O)cc1` the “solvation free energy, 298 K” value (in C=CCCCCCCC=C) was -9.48 kcal/mol and the “solvation free energy, 298 K” value (in O) was -11.9 kcal/mol.

For `CCCCCCCC=O`, the “solvation free energy, 298 K” value (in CCCCCCCCCCCCCCCC) was -5.82 kcal/mol, the “solvation free energy, 298 K” value (in CCCCCCCCO) was -7.26 kcal/mol and the “solvation free energy, 298 K” value (in NC=O) was -4.31 kcal/mol. For the same compound, the “solvation free energy, 298 K” value (in O) was -2.29 kcal/mol.

For `COc1cc(C2c3cc4c(cc3C(O)C3COC(=O)C23)OCO4)cc(OC)c1OC` (stereo not given), the “solvation free energy, 298 K” value (in CC(C)O) was -25.1 kcal/mol and the “solvation free energy, 298 K” value (in CCO) was -25.3 kcal/mol.

In the case of `CCCCS`, the “solvation free energy, 298 K” value (in O) is reported as -0.88 kcal/mol.

With `CC(=O)Nc1ccc(O)cc1` the “solvation free energy, 298 K” value (in C1CCOC1) was -16.1 kcal/mol, the “solvation free energy, 298 K” value (in C1COCCO1) was -14.9 kcal/mol and the “solvation free energy, 298 K” value (in CC(C)(C)O) was -15.8 kcal/mol. The “solvation free energy, 298 K” value (in CC(C)CO) was -15.6 kcal/mol, the “solvation free energy, 298 K” value (in CC(C)O) was -16 kcal/mol and the “solvation free energy, 298 K” value (in CC(C)OCCO) was -16.1 kcal/mol. The “solvation free energy, 298 K” value (in CC(O)COC(C)(C)C) was -15.5 kcal/mol, the “solvation free energy, 298 K” value (in CCC(C)O) was -15.8 kcal/mol and the “solvation free energy, 298 K” value (in CCCCCCCO) was -15.3 kcal/mol. For the same compound, the “solvation free energy, 298 K” value (in CCCCCCO) was -15.5 kcal/mol, the “solvation free energy, 298 K” value (in CCCCCO) was -15.6 kcal/mol and the “solvation free energy, 298 K” value (in CCCCO) was -15.8 kcal/mol. For the same compound, the “solvation free energy, 298 K” value (in CCCCOC(C)=O) was -14.2 kcal/mol, the “solvation free energy, 298 K” value (in CCCCOCCCC) was -12 kcal/mol and the “solvation free energy, 298 K” value (in CCCCOCCO) was -15.8 kcal/mol. The “solvation free energy, 298 K” value (in CCCO) was -16.1 kcal/mol, the “solvation free energy, 298 K” value (in CCCOCCO) was -16.1 kcal/mol and the “solvation free energy, 298 K” value (in CCOCCO) was -16.4 kcal/mol. For the same compound, the “solvation free energy, 298 K” value (in CN(C)C=O) was -17.3 kcal/mol, the “solvation free energy, 298 K” value (in CO) was -16.6 kcal/mol and the “solvation free energy, 298 K” value (in COC(C)(C)C) was -13.4 kcal/mol. The “solvation free energy, 298 K” value (in COC(C)=O) was -14.8 kcal/mol, the “solvation free energy, 298 K” value (in COC(C)CCO) was -16 kcal/mol and the “solvation free energy, 298 K” value (in ClCCl) was -12.8 kcal/mol. For the same compound, the “solvation free energy, 298 K” value (in Fc1ccccc1) was -12.1 kcal/mol and the “solvation free energy, 298 K” value (in O) was -14.9 kcal/mol.

For `CC(=O)N1CCCC1`, the “solvation free energy, 298 K” value (in O) was -9.8 kcal/mol.

With `CCC(C)(C)O` the “solvation free energy, 298 K” value (in CC(=O)CC(C)=O) was -5.07 kcal/mol, the “solvation free energy, 298 K” value (in CCCCCCC) was -3.85 kcal/mol and the “solvation free energy, 298 K” value (in CCCCCCCC) was -3.99 kcal/mol. For the same compound, the “solvation free energy, 298 K” value (in CCCCCCCCCC) was -3.99 kcal/mol and the “solvation free energy, 298 K” value (in O) was -4.43 kcal/mol.

In the case of `C=CC(C)(O)CCC=C(C)C` (stereo not given), the “solvation free energy, 298 K” value (in O) is reported as -4.17 kcal/mol.

In the case of `CNC=O`, the “solvation free energy, 298 K” value (in C1CCCCC1) is reported as -3.86 kcal/mol, the “solvation free energy, 298 K” value (in CC(C)=O) is reported as -7.35 kcal/mol and the “solvation free energy, 298 K” value (in CCCCCCC) is reported as -3.68 kcal/mol. For the same compound, the “solvation free energy, 298 K” value (in O) was -8.87 kcal/mol.

With `COC(=O)OC` the “solvation free energy, 298 K” value (in C1CCCCC1) was -3.6 kcal/mol, the “solvation free energy, 298 K” value (in CC(Cl)(Cl)Cl) was -4.63 kcal/mol and the “solvation free energy, 298 K” value (in CCC1CO1) was -4.73 kcal/mol. For the same compound, the “solvation free energy, 298 K” value (in CCCO) was -3.72 kcal/mol, the “solvation free energy, 298 K” value (in COC(C)(C)C) was -4.24 kcal/mol and the “solvation free energy, 298 K” value (in ClC(Cl)(Cl)Cl) was -4.27 kcal/mol. The “solvation free energy, 298 K” value (in ClCCCl) was -5.04 kcal/mol, the “solvation free energy, 298 K” value (in O) was -3.53 kcal/mol and the “solvation free energy, 298 K” value (in c1ccccc1) was -4.66 kcal/mol.

With `CCCBr` the “solvation free energy, 298 K” value (in C=CCCCCCCCCCCCCCC) was -3.56 kcal/mol, the “solvation free energy, 298 K” value (in ClC(Cl)(Cl)Cl) was -4.17 kcal/mol and the “solvation free energy, 298 K” value (in O) was -0.56 kcal/mol.

For `Clc1ccccc1Cl`, the “solvation free energy, 298 K” value (in C1CCOC1) was -7.11 kcal/mol, the “solvation free energy, 298 K” value (in C1COCCO1) was -7.01 kcal/mol and the “solvation free energy, 298 K” value (in CCCCCC) was -6.14 kcal/mol. For the same compound, the “solvation free energy, 298 K” value (in CCCCCCC) was -6.01 kcal/mol, the “solvation free energy, 298 K” value (in CCCCCCCCCCCCCCCC) was -6.04 kcal/mol and the “solvation free energy, 298 K” value (in CCCCCCCCO) was -5.95 kcal/mol. The “solvation free energy, 298 K” value (in CN(C)C=O) was -6.82 kcal/mol, the “solvation free energy, 298 K” value (in ClC(Cl)(Cl)Cl) was -6.79 kcal/mol and the “solvation free energy, 298 K” value (in N#Cc1ccccc1) was -6.82 kcal/mol. For the same compound, the “solvation free energy, 298 K” value (in NC=O) was -4.55 kcal/mol and the “solvation free energy, 298 K” value (in O) was -1.4 kcal/mol.

In the case of `O=c1[nH]c(=O)[nH]c(=O)[nH]1`, the “solvation free energy, 298 K” value (in O) is reported as -18.1 kcal/mol.
